Measurements published in patent publication US7687530B2, “Inhibition of chronic tissue transplant rejection” (Genzyme Corporation, priority 2002, dated 2010).
Entries after “also recorded” stand apart in the source; their conditions may differ.

Columns and labels:
Type in all cases: in vivo
[1] = tested on: heart from C57/BL6 mice transplanted into Balb/c recipient mice (total MHC mismatch); assay: Transplant rejection in total MHC mismatch heart transplant mouse model (Example 3); details: Compound 1 alone 75 mg/kg/day s.c. for fourteen days; p<0.001; untreated controls rejected after ten days
Procedure: The ability of Compound 1 to inhibit transplant rejection in a mouse model was tested. Specifically, the heart from C57/BL6 mice was transplanted into Balb/c recipient mice (total MHC mismatch) using standard protocol described in Hancock, W. W., et al. “Costimulatory function and expression of CD40 ligand, CD80 and CD86 in vascularized murine cardiac allograft rejection” Proc. Natl. Acad. Sci. USA 93: 13967 (1996). Following surgery, the mice were divided into the following treatment groups: • Group I is a control group that was untreated. • Group II was treated with Compound 1 at a dose of 75 mg/kg/day subcutaneously for fourteen days following surgery. Control mice receiving no treatment reproducibly experienced rejection of their transplanted hearts after only ten days.

[2] = tested on: hearts from donor B6.C-H2^bm12 mice transplanted into C57/BL6 recipient mice (MHC II mismatch); assay: Chronic rejection of MHC class II mismatched heart transplants, first mouse model (Example 1)
Procedure: The ability of Compound 1 to inhibit chronic transplant rejection in a mouse model was tested. Specifically, hearts from donor B6.C-H2^bm12 mice were transplanted into C57/BL6 recipient mice (MHC II mismatch) using standard protocol described in Hancock, W. W., et al. Proc. Natl. Acad. Sci. USA 93: 13967 (1996) and Yuan et al., Transplantation 73:1736, the entire teachings of which are incorporated herein by reference. Following surgery, the mice were divided into the following treatment groups with seven mice each:
Group I was a control group that was untreated.
Group II was treated with Compound 1 at a dose of 75 mg/kg/day subcutaneously for fourteen days following surgery.
At eight weeks following transplant surgery, the mice were sacrificed and evaluated for chronic rejection accelerated atherosclerosis. Briefly, transplanted hearts were fixed in formalin, embedded in paraffin and sectioned coronally. The sections were scanned for arterial blood vessels, which were subjected to a histopathological score. The histopathological scores (range 0-5 indicating severity of chronic rejection accelerated atherosclerosis, with 0 being normal blood vessel and 5 being fully occluded) are shown in FIG. 1. […] It is likely that increased bioavailability resulting from improved compound formulation will result in more complete protection from chronic rejection vasculopathy.

[3] = tested on: fully mismatched cardiac allografts (C57/BL 6 donor with Balb/C recipient); assay: Heterotypic allogeneic heart transplant model with CD154 blockade, second mouse model (Example 2)
Procedure: The ability of compound 1 to inhibit chronic transplant rejection was tested in a mouse heterotypic allogeneic heart transplant model in which acute allograft rejection was prevented with CD154 blockade as previously described (Hancock, W. W. et al. 1996. Proc. Natl. Acad. Sci. USA. 93:13967; and Yuan et al., Transplantation 73:1736). Briefly, this model consists of fully mismatched cardiac allografts (C57/BL 6 donor with Balb/C recipient). […] A third group in which acute rejection is blocked by administering a single 250 μg dose of anti-CD154 (anti-CD40 ligand) monoclonal antibody was established, and acute rejection (as evidenced by cessation of contraction of the transplanted heart) occurred in approximately 50% of recipient animals. […] These include profound athlerosclerotic blockages of heart arteries, cellular inflammation (immune cell infiltration into the heart muscle itself), and fibrotic scarring of the cardiac parenchyma. The hearts were subjected to a histopathological score. The histopathological scores (range 0-5 indicating severity of chronic rejection accelerated atherosclerosis, with 0 being normal blood vessel and 5 being fully occluded) are shown in FIG. 2. Thus the addition of anti-CD154 to this model offers certain similarities to the human transplant clinical condition in that acute rejection is managed (in this case with the anti-CD154 monoclonal antibody) so that chronic rejection pathology can be observed.

N#Cc1cccc(C(C(=O)NCC(c2ccccc2)c2ccccc2)N(CCc2c[nH]cn2)C(=O)c2ccccc2C(=O)c2ccccc2)c1 (centres unmarked) [Compound 1]
delay in the onset of rejection [1]: two to three | animals free of vasculopathy ([2]; 75 mg/kg/day s.c. for fourteen days, eight weeks after transplant, seven mice per group): 4/7 | treated animals showing full involvement (vasculopathy) ([2]; 75 mg/kg/day s.c. for fourteen days, eight weeks after transplant, seven mice per group, possibly diminished exposure): three | histological evidence of chronic rejection (histopathological score 0-5, chronic rejection accelerated atherosclerosis) ([2]; 75 mg/kg/day subcutaneously for fourteen days following surgery, evaluated eight weeks after transplant, averaged for all animals, vs untreated control): inhibited; also recorded: significantly (p=0.0002) prevented histological evidence of chronic rejection | chronic rejection of transplanted hearts ([3]; 75 mg/kg/day Compound 1 for two weeks combined with single 250 μg anti-CD154 monoclonal antibody, 120 days post surgery): inhibited | indicators of chronic graft rejection (atherosclerotic blockages, cellular inflammation, fibrotic scarring), histological evaluation ([3]; Compound 1 75 mg/kg daily s.c. for 14 days plus single dose anti-CD154, compared with anti-CD154 alone, more than 100 days post surgery): dramatic inhibition of all indicators of chronic rejection | transplant recipient animals with lack of acute rejection ([3]; Compound 1 75 mg/kg daily s.c. for 14 days plus single dose anti-CD154, for more than 100 days post surgery): 100% | extension in transplant survival ([3]; Compound 1 alone, untreated recipients rejected within 10 days): about 20 days
